These are literature values, as cited in patent US10392474B2, “Anionic linear polyglycerol derivatives, a method for manufacturing and applications” (FREIE UNIVERSITAET BERLIN, priority 2015, dated 2019).

The conditions of the data set: after subcutaneous administration.

Take `CO[C@H]1O[C@H](COS(=O)(=O)O)[C@@H](O[C@@H]2O[C@@H](C(=O)O)[C@@H](O[C@H]3O[C@H](COS(=O)(=O)O)[C@@H](O[C@@H]4O[C@H](C(=O)O)[C@@H](O[C@H]5O[C@H](COS(=O)(=O)O)[C@@H](O)[C@H](O)[C@H]5NS(=O)(=O)O)[C@H](O)[C@H]4O)[C@H](OS(=O)(=O)O)[C@H]3NS(=O)(=O)O)[C@H](O)[C@H]2OS(=O)(=O)O)[C@H](O)[C@H]1NS(=O)(=O)O` [fondaparinux]: the half-life (commonly the time needed for the level to fall by half in the phase considered) is 17 h.
